From patent US20160251332A1, “Herbicidal Compounds” (SYNGENTA PARTICIPATIONS AG, priority 2013, published 2016)

tested on: Alopecurus myosuroides; test: Pre-emergence herbicidal activity, ALOMY; format: in vivo; details: Application pre-emergence, 1000 g/Ha, evaluated after 13 days, scale 0-5
Procedure: (§1) Seeds of a variety of test species were sown in standard soil in pots. After cultivation for one day (pre-emergence) under controlled conditions in a glasshouse (at 24/16° C., day/night; 14 hours light; 65% humidity), the plants were sprayed with an aqueous spray solution derived from the formulation of the technical active ingredient in acetone/water (50:50) solution containing 0.5% Tween 20 (polyoxyethelyene sorbitan monolaurate, CAS RN 9005-64-5). The test plants were then grown in a glasshouse under controlled conditions (at 24/16° C., day/night; 14 hours light; 65% humidity) and watered twice daily. After 13 days, the test was evaluated (5=total damage to plant; 0=no damage to plant).

SMILES | ALOMY damage score
Cc1cnc(N2C(=O)N(C)CC2O)cc1C(F)(F)F (stereo not drawn) [Compound A40] | 4
CN1CC(O)N(c2cc(C(F)(F)F)c(-c3cccc([S+](C)[O-])c3)cn2)C1=O (stereo not drawn) [Compound A11] | 1
CN1CC(O)N(c2cc(C(F)(F)F)ccn2)C1=O (stereo not drawn) [Compound A1, 4-hydroxy-1-methyl-3-[4-(trifluoromethyl)-2-pyridyl]imidazolidin-2-one] | 4
CN1CC(O)N(c2cc(C(C)(F)F)ccn2)C1=O (stereo not drawn) [Compound A37] | 4

tested on: Setaria faberi; test: Pre-emergence herbicidal activity, SETFA; format: in vivo; details: Application pre-emergence, 1000 g/Ha, evaluated after 13 days, scale 0-5
Procedure: as §1

SMILES | SETFA damage score
Cc1cnc(N2C(=O)N(C)CC2O)cc1C(F)(F)F (stereo not drawn) [Compound A40] | 4
CN1CC(O)N(c2cc(C(F)(F)F)c(-c3cccc([S+](C)[O-])c3)cn2)C1=O (stereo not drawn) [Compound A11] | 1
CN1CC(O)N(c2cc(C(F)(F)F)ccn2)C1=O (stereo not drawn) [Compound A1, 4-hydroxy-1-methyl-3-[4-(trifluoromethyl)-2-pyridyl]imidazolidin-2-one] | 4
CN1CC(O)N(c2cc(C(C)(F)F)ccn2)C1=O (stereo not drawn) [Compound A37] | 1

tested on: Setaria faberi; test: Post-emergence herbicidal activity, SETFA; format: in vivo; details: Application post-emergence, 1000 g/Ha, evaluated after 13 days, scale 0-5
Procedure: (§2) Seeds of a variety of test species were sown in standard soil in pots. After 8 days cultivation (post-emergence) under controlled conditions in a glasshouse (at 24/16° C., day/night; 14 hours light; 65% humidity), the plants were sprayed with an aqueous spray solution derived from the formulation of the technical active ingredient in acetone/water (50:50) solution containing 0.5% Tween 20 (polyoxyethelyene sorbitan monolaurate, CAS RN 9005-64-5). The test plants were then grown in a glasshouse under controlled conditions (at 24/16° C., day/night; 14 hours light; 65% humidity) and watered twice daily. After 13 days, the test was evaluated (5=total damage to plant; 0=no damage to plant).

SMILES | SETFA damage score
Cc1cnc(N2C(=O)N(C)CC2O)cc1C(F)(F)F (stereo not drawn) [Compound A40] | 5
CN1CC(O)N(c2cc(C(F)(F)F)c(-c3cccc([S+](C)[O-])c3)cn2)C1=O (stereo not drawn) [Compound A11] | 3
CN1CC(O)N(c2cc(C(F)(F)F)ccn2)C1=O (stereo not drawn) [Compound A1, 4-hydroxy-1-methyl-3-[4-(trifluoromethyl)-2-pyridyl]imidazolidin-2-one] | 5
CN1CC(O)N(c2cc(C(C)(F)F)ccn2)C1=O (stereo not drawn) [Compound A37] | 5

tested on: Echinochloa crus-galli; test: Pre-emergence herbicidal activity, ECHCG; format: in vivo; details: Application pre-emergence, 1000 g/Ha, evaluated after 13 days, scale 0-5
Procedure: as §1

SMILES | ECHCG damage score
Cc1cnc(N2C(=O)N(C)CC2O)cc1C(F)(F)F (stereo not drawn) [Compound A40] | 5
CN1CC(O)N(c2cc(C(F)(F)F)c(-c3cccc([S+](C)[O-])c3)cn2)C1=O (stereo not drawn) [Compound A11] | 1
CN1CC(O)N(c2cc(C(F)(F)F)ccn2)C1=O (stereo not drawn) [Compound A1, 4-hydroxy-1-methyl-3-[4-(trifluoromethyl)-2-pyridyl]imidazolidin-2-one] | 5
CN1CC(O)N(c2cc(C(C)(F)F)ccn2)C1=O (stereo not drawn) [Compound A37] | 3

tested on: Zea mays; test: Post-emergence herbicidal activity, ZEAMX; format: in vivo; details: Application post-emergence, 1000 g/Ha, evaluated after 13 days, scale 0-5
Procedure: as §2

SMILES | ZEAMX damage score
Cc1cnc(N2C(=O)N(C)CC2O)cc1C(F)(F)F (stereo not drawn) [Compound A40] | 4
CN1CC(O)N(c2cc(C(F)(F)F)c(-c3cccc([S+](C)[O-])c3)cn2)C1=O (stereo not drawn) [Compound A11] | 2
CN1CC(O)N(c2cc(C(F)(F)F)ccn2)C1=O (stereo not drawn) [Compound A1, 4-hydroxy-1-methyl-3-[4-(trifluoromethyl)-2-pyridyl]imidazolidin-2-one] | 5
CN1CC(O)N(c2cc(C(C)(F)F)ccn2)C1=O (stereo not drawn) [Compound A37] | 4

tested on: Abutilon theophrasti; test: Pre-emergence herbicidal activity, ABUTH; format: in vivo; details: Application pre-emergence, 1000 g/Ha, evaluated after 13 days, scale 0-5
Procedure: as §1

SMILES | ABUTH damage score
Cc1cnc(N2C(=O)N(C)CC2O)cc1C(F)(F)F (stereo not drawn) [Compound A40] | 5
CN1CC(O)N(c2cc(C(F)(F)F)c(-c3cccc([S+](C)[O-])c3)cn2)C1=O (stereo not drawn) [Compound A11] | 2
CN1CC(O)N(c2cc(C(F)(F)F)ccn2)C1=O (stereo not drawn) [Compound A1, 4-hydroxy-1-methyl-3-[4-(trifluoromethyl)-2-pyridyl]imidazolidin-2-one] | 5
CN1CC(O)N(c2cc(C(C)(F)F)ccn2)C1=O (stereo not drawn) [Compound A37] | 5

tested on: Amaranthus retroflexus; test: Post-emergence herbicidal activity, AMARE; format: in vivo; details: Application post-emergence, 1000 g/Ha, evaluated after 13 days, scale 0-5
Procedure: as §2

SMILES | AMARE damage score
Cc1cnc(N2C(=O)N(C)CC2O)cc1C(F)(F)F (stereo not drawn) [Compound A40] | 5
CN1CC(O)N(c2cc(C(F)(F)F)c(-c3cccc([S+](C)[O-])c3)cn2)C1=O (stereo not drawn) [Compound A11] | 5
CN1CC(O)N(c2cc(C(F)(F)F)ccn2)C1=O (stereo not drawn) [Compound A1, 4-hydroxy-1-methyl-3-[4-(trifluoromethyl)-2-pyridyl]imidazolidin-2-one] | 5
CN1CC(O)N(c2cc(C(C)(F)F)ccn2)C1=O (stereo not drawn) [Compound A37] | 5

tested on: Zea mays; test: Pre-emergence herbicidal activity, ZEAMX; format: in vivo; details: Application pre-emergence, 1000 g/Ha, evaluated after 13 days, scale 0-5
Procedure: as §1

SMILES | ZEAMX damage score
Cc1cnc(N2C(=O)N(C)CC2O)cc1C(F)(F)F (stereo not drawn) [Compound A40] | 4
CN1CC(O)N(c2cc(C(F)(F)F)c(-c3cccc([S+](C)[O-])c3)cn2)C1=O (stereo not drawn) [Compound A11] | 0
CN1CC(O)N(c2cc(C(F)(F)F)ccn2)C1=O (stereo not drawn) [Compound A1, 4-hydroxy-1-methyl-3-[4-(trifluoromethyl)-2-pyridyl]imidazolidin-2-one] | 3
CN1CC(O)N(c2cc(C(C)(F)F)ccn2)C1=O (stereo not drawn) [Compound A37] | 2

tested on: Abutilon theophrasti; test: Post-emergence herbicidal activity, ABUTH; format: in vivo; details: Application post-emergence, 1000 g/Ha, evaluated after 13 days, scale 0-5
Procedure: as §2

SMILES | ABUTH damage score
Cc1cnc(N2C(=O)N(C)CC2O)cc1C(F)(F)F (stereo not drawn) [Compound A40] | 5
CN1CC(O)N(c2cc(C(F)(F)F)c(-c3cccc([S+](C)[O-])c3)cn2)C1=O (stereo not drawn) [Compound A11] | 5
CN1CC(O)N(c2cc(C(F)(F)F)ccn2)C1=O (stereo not drawn) [Compound A1, 4-hydroxy-1-methyl-3-[4-(trifluoromethyl)-2-pyridyl]imidazolidin-2-one] | 5
CN1CC(O)N(c2cc(C(C)(F)F)ccn2)C1=O (stereo not drawn) [Compound A37] | 5

tested on: Echinochloa crus-galli; test: Post-emergence herbicidal activity, ECHCG; format: in vivo; details: Application post-emergence, 1000 g/Ha, evaluated after 13 days, scale 0-5
Procedure: as §2

SMILES | ECHCG damage score
Cc1cnc(N2C(=O)N(C)CC2O)cc1C(F)(F)F (stereo not drawn) [Compound A40] | 5
CN1CC(O)N(c2cc(C(F)(F)F)c(-c3cccc([S+](C)[O-])c3)cn2)C1=O (stereo not drawn) [Compound A11] | 3
CN1CC(O)N(c2cc(C(F)(F)F)ccn2)C1=O (stereo not drawn) [Compound A1, 4-hydroxy-1-methyl-3-[4-(trifluoromethyl)-2-pyridyl]imidazolidin-2-one] | 5
CN1CC(O)N(c2cc(C(C)(F)F)ccn2)C1=O (stereo not drawn) [Compound A37] | 4

tested on: Amaranthus retroflexus; test: Pre-emergence herbicidal activity, AMARE; format: in vivo; details: Application pre-emergence, 1000 g/Ha, evaluated after 13 days, scale 0-5
Procedure: as §1

SMILES | AMARE damage score
Cc1cnc(N2C(=O)N(C)CC2O)cc1C(F)(F)F (stereo not drawn) [Compound A40] | 5
CN1CC(O)N(c2cc(C(F)(F)F)c(-c3cccc([S+](C)[O-])c3)cn2)C1=O (stereo not drawn) [Compound A11] | 2
CN1CC(O)N(c2cc(C(F)(F)F)ccn2)C1=O (stereo not drawn) [Compound A1, 4-hydroxy-1-methyl-3-[4-(trifluoromethyl)-2-pyridyl]imidazolidin-2-one] | 5
CN1CC(O)N(c2cc(C(C)(F)F)ccn2)C1=O (stereo not drawn) [Compound A37] | 5

tested on: Alopecurus myosuroides; test: Post-emergence herbicidal activity, ALOMY; format: in vivo; details: Application post-emergence, 1000 g/Ha, evaluated after 13 days, scale 0-5
Procedure: as §2

SMILES | ALOMY damage score
Cc1cnc(N2C(=O)N(C)CC2O)cc1C(F)(F)F (stereo not drawn) [Compound A40] | 5
CN1CC(O)N(c2cc(C(F)(F)F)c(-c3cccc([S+](C)[O-])c3)cn2)C1=O (stereo not drawn) [Compound A11] | 2
CN1CC(O)N(c2cc(C(F)(F)F)ccn2)C1=O (stereo not drawn) [Compound A1, 4-hydroxy-1-methyl-3-[4-(trifluoromethyl)-2-pyridyl]imidazolidin-2-one] | 5
CN1CC(O)N(c2cc(C(C)(F)F)ccn2)C1=O (stereo not drawn) [Compound A37] | 5
